Data from ChEMBL document CHEMBL1240489, “Discovery of N-{1-[3-(3-oxo-2,3-dihydrobenzo[1,4]oxazin-4-yl)propyl]piperidin-4-yl}-2-phenylacetamide (Lu AE51090): an allosteric muscarinic M1 receptor agonist with unprecedented selectivity and procognitive potential” (J Med Chem, 2010).
Active and inactive are the calls of the source. The calls are words filed in the database; no cut-off is given here.

Tests used:
[1] = Ratio of brain to plasma AUC in C57/6J mouse at 20 mg/kg, sc; format: ADME, organism-based; set-up: dose 20 mg/kg, route subcutaneous
[2] = tested on: Mus musculus; experiment: Reversal of 60 seconds delay-induced memory decay in C57Bl/6J mouse assessed as positive alteration at 10 to 20 mg/kg, sc for 1 week by Y-maze test; format: functional, organism-based
[3] = tested on: Hepatocyte; experiment: Intrinsic clearance in rat hepatocytes at 1 uM after up to 60 mins by LC/MS-MS analysis; format: ADME, cell-based, Liver; conditions: 1 h
[4] = target: Nischarin (Homo sapiens, UniProt Q9Y2I1); experiment: Binding affinity to I1 receptor by radioligand displacement assay
Chain of Nischarin (Q9Y2I1 whole entry): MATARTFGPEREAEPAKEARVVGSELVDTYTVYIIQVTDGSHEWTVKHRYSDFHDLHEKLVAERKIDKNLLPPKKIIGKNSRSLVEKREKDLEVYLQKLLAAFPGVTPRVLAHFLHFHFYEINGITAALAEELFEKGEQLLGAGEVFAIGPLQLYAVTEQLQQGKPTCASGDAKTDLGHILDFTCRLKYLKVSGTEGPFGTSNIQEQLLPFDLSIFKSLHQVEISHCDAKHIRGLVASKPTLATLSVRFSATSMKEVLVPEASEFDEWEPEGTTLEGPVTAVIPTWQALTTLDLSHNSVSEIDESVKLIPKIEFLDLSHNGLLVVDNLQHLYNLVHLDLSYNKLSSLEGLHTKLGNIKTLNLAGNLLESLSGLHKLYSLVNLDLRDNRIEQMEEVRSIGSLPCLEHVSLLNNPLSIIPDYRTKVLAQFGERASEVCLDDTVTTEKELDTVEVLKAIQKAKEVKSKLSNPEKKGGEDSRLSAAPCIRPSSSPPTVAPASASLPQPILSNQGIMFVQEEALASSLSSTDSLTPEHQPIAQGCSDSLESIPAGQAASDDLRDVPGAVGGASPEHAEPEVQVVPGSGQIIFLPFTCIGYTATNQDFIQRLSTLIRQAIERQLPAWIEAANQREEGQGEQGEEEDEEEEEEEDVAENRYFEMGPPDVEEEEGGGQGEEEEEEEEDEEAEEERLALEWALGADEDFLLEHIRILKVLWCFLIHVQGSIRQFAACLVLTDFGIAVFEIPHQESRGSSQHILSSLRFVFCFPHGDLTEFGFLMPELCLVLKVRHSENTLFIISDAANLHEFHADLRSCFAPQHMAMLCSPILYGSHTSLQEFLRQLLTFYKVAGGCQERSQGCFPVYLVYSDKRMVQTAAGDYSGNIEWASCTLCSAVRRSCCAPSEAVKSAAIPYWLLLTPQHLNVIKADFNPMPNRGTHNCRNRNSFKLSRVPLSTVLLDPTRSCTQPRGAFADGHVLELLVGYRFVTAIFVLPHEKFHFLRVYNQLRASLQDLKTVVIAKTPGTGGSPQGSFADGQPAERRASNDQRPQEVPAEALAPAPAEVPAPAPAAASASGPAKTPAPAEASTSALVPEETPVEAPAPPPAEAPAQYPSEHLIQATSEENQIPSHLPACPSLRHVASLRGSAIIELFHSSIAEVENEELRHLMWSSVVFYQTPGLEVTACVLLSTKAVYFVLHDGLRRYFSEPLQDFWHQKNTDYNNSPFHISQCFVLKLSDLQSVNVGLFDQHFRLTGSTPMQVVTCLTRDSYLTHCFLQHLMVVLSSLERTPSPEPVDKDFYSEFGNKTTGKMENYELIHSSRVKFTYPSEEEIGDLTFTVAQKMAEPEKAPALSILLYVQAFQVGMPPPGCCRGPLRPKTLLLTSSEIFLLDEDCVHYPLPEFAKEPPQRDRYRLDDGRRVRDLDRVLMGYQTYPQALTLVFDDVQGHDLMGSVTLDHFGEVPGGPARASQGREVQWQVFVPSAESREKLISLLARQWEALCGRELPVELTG

[5] = target: Alpha-2A adrenergic receptor (Homo sapiens, UniProt P08913); experiment: Binding affinity to human adrenergic alpha2A receptor by radioligand displacement assay
Chain of Alpha-2A adrenergic receptor (P08913 whole entry): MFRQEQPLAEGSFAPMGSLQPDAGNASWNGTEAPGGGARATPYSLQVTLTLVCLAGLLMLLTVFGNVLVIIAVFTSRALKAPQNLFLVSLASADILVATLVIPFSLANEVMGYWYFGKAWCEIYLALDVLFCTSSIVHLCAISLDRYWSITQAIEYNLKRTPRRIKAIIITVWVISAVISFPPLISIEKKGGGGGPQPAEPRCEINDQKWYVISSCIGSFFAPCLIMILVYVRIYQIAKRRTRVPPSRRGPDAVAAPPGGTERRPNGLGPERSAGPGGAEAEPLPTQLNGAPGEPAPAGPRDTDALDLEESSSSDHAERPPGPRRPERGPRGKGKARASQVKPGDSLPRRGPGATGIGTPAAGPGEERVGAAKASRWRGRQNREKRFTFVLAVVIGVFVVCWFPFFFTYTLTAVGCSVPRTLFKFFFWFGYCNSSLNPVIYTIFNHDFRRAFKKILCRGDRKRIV

[6] = Binding affinity to GABA transporter by radioligand displacement assay
[7] = target: Mu-type opioid receptor (Homo sapiens, UniProt P35372); experiment: Binding affinity to human mu opioid receptor agonist site by radioligand displacement assay
Chain of Mu-type opioid receptor (P35372 whole entry): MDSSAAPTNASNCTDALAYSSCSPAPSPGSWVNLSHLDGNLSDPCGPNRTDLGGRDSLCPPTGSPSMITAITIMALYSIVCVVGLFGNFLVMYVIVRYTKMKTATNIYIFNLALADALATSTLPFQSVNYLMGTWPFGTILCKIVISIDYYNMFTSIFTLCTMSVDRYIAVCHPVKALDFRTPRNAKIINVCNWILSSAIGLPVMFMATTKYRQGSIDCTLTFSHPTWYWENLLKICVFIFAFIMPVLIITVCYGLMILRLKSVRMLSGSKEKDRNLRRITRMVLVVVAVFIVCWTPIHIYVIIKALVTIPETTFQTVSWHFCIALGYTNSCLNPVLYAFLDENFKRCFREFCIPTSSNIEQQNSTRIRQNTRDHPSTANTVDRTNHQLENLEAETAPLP

[8] = target: Cannabinoid receptor 1 (Homo sapiens, UniProt P21554); experiment: Binding affinity to human CB1 receptor by radioligand displacement assay
Chain of Cannabinoid receptor 1 (P21554 whole entry): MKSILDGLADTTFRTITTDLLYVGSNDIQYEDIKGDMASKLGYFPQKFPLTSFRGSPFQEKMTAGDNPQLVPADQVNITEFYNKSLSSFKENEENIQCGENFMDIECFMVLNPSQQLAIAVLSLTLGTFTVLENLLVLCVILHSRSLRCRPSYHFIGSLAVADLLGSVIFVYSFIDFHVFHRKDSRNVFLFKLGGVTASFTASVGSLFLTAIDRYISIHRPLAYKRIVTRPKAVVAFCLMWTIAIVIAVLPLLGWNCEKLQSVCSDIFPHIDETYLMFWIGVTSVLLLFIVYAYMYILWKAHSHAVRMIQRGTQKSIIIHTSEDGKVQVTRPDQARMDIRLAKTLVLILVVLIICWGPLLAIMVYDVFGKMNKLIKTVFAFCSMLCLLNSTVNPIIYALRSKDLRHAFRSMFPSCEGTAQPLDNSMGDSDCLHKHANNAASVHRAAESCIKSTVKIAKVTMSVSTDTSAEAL

[9] = target: Alpha-2B adrenergic receptor (Homo sapiens, UniProt P18089); experiment: Binding affinity to adrenergic alpha2B receptor by radioligand displacement assay
Chain of Alpha-2B adrenergic receptor (P18089 whole entry): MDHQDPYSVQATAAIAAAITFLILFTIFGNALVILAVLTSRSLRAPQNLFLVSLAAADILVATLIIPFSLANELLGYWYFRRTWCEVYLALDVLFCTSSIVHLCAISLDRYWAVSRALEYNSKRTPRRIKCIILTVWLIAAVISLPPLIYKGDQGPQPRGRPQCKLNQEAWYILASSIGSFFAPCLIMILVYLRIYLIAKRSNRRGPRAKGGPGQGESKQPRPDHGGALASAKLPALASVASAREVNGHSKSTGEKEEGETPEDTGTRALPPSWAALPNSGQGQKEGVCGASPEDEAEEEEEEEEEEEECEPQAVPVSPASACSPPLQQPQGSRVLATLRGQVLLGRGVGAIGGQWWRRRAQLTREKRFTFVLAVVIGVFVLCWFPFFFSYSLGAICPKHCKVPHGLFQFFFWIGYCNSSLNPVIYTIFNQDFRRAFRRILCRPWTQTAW

[10] = target: D(3) dopamine receptor (Homo sapiens, UniProt P35462); experiment: Binding affinity to human dopamine D3 receptor by radioligand displacement assay
[11] = Binding affinity to GABAA receptor by radioligand displacement assay
[12] = Binding affinity to human muscle-type nicotinic acetylcholine receptor by radioligand displacement assay
[13] = target: Histamine H2 receptor (Homo sapiens, UniProt P25021); experiment: Binding affinity to human histamine H2 receptor by radioligand displacement assay
[14] = Binding affinity to voltage gated Na channel site 2 by radioligand displacement assay
[15] = Protein binding in rat plasma at 0.1 uM after 60 mins by LC/MS-MS analysis; format: ADME, cell-free; conditions: read-out: PPB (converted)
[16] = target: T1, Muscarinic acetylcholine receptor M1 (Homo sapiens, UniProt P11229); experiment: Binding affinity to human muscarinic M1 receptor by radioligand displacement assay
T1 sequence (P11229 whole entry): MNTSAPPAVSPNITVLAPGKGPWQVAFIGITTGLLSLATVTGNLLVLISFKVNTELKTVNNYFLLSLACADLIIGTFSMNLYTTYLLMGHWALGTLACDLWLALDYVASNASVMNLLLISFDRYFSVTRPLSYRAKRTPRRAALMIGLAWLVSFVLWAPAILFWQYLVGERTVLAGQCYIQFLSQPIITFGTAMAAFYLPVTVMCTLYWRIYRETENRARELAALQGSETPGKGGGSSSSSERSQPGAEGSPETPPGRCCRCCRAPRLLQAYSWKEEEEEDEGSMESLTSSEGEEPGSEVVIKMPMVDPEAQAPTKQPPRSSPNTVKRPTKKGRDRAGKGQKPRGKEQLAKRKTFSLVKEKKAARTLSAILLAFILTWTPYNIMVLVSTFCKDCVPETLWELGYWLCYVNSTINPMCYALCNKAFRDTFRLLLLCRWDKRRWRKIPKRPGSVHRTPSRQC

[17] = species on record: Rattus norvegicus; experiment: Hepatic blood flow in rat; format: ADME, organism-based, Liver
[18] = target: T2, Muscarinic acetylcholine receptor M4 (Homo sapiens, UniProt P08173); experiment: Binding affinity to human muscarinic M4 receptor by radioligand displacement assay
T2 sequence (P08173 whole entry): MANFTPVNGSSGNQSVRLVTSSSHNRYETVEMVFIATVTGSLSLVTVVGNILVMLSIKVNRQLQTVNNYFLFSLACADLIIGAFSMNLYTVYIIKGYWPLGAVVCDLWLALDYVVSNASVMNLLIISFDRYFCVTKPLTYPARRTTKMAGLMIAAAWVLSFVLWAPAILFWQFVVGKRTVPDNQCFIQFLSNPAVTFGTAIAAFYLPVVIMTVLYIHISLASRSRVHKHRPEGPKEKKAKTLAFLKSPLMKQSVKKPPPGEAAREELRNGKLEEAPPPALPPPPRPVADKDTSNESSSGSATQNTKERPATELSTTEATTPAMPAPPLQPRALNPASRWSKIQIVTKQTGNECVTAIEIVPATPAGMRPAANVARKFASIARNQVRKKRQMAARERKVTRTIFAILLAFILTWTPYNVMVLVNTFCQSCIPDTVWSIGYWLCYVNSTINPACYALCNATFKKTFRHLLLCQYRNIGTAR

[19] = Terminal half life in rat plasma at 1 mg/kg, iv and 2 mg/kg, po; format: ADME, organism-based
[20] = target: T3, Muscarinic acetylcholine receptor M1 (Homo sapiens) (UniProt P11229); experiment: Agonist activity at human muscarinic M1 receptor expressed in CHO-K1 cells assessed as increase of acetylcholine-induced calcium flux by FLIPR assay in presence of atropine; format: functional, cell-based
T3 sequence (whole entry): T1 sequence (P11229 whole entry)

[21] = target: Acetylcholinesterase (Homo sapiens, UniProt P22303); experiment: Binding affinity to human acetylcholine esterase by radioligand displacement assay
Chain of Acetylcholinesterase (P22303 whole entry): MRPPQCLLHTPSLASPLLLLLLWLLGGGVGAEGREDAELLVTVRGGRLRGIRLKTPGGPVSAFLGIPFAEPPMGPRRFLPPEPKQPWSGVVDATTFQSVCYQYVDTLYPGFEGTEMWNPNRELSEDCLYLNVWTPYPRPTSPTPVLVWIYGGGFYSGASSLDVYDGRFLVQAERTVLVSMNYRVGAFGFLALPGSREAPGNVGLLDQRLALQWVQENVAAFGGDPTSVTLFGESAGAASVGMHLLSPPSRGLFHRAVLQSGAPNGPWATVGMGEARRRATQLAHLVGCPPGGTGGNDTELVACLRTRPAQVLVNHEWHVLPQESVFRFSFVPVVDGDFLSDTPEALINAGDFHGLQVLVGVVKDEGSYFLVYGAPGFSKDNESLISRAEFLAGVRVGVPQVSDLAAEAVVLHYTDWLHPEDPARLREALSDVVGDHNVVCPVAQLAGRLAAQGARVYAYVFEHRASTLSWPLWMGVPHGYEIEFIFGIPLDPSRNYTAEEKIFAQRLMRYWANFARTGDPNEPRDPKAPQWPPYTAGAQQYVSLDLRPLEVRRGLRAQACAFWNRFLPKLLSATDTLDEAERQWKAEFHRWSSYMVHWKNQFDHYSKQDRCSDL

[22] = Binding affinity to sigma receptor by radioligand displacement assay
[23] = target: T4, Muscarinic acetylcholine receptor M5 (Homo sapiens, UniProt P08912); experiment: Binding affinity to human muscarinic M5 receptor by radioligand displacement assay
T4 sequence (P08912 whole entry): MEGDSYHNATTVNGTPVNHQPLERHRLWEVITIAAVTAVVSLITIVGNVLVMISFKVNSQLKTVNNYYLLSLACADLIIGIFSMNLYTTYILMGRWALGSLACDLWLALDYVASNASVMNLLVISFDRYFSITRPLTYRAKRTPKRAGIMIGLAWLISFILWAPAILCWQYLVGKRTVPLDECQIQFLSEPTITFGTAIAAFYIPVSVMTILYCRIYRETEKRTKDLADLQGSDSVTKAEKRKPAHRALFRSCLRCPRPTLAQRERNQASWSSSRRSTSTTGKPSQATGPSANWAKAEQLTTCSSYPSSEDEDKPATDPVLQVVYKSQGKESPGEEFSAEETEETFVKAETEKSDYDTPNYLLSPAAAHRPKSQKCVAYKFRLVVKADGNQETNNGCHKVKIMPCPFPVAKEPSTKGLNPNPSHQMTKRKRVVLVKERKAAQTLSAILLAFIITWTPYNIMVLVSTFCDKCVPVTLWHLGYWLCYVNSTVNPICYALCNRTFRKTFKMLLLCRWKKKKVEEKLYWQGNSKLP

[24] = target: Melanocortin receptor 4 (Homo sapiens, UniProt P32245); experiment: Binding affinity to human MC4 receptor by radioligand displacement assay
[25] = Binding affinity to human delta2 opioid receptor by radioligand displacement assay
[26] = target: T1, Muscarinic acetylcholine receptor M1
[27] = species on record: Homo sapiens; experiment: Hepatic blood flow in human; format: ADME, organism-based, Liver
[28] = target: 5-hydroxytryptamine receptor 7 (Homo sapiens, UniProt P34969); experiment: Binding affinity to human 5-HT7 receptor by radioligand displacement assay
Chain of 5-hydroxytryptamine receptor 7 (P34969 whole entry): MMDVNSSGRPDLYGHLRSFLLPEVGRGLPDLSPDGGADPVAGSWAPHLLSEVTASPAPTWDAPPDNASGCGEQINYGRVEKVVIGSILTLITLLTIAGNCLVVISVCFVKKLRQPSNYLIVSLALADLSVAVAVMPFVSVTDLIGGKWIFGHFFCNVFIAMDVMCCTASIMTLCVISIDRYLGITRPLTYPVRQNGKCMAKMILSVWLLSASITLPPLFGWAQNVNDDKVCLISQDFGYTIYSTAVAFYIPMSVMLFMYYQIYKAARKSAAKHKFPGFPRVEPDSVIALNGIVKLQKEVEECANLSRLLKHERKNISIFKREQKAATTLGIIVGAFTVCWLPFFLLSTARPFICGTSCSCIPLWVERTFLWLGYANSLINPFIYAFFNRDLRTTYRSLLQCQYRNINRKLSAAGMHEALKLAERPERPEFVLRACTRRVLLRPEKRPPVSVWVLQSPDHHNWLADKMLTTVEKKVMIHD

[29] = target: Adenosine receptor A1 (Homo sapiens, UniProt P30542); experiment: Binding affinity to human adenosine A1 receptor by radioligand displacement assay
Chain of Adenosine receptor A1 (P30542 whole entry): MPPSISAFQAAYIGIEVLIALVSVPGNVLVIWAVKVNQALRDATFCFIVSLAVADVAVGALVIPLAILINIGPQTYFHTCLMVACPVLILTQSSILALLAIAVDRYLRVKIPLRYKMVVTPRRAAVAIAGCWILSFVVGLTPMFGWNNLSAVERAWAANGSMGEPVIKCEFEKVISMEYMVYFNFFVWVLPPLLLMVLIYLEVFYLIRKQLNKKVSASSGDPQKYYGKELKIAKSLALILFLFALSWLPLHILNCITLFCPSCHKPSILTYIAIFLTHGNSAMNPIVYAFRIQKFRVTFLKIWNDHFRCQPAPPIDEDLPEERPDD

Question: Which results are given for `O=C(Cc1ccccc1)NC1CCN(CCCN2C(=O)COc3ccccc32)CC1`?
Answer: Kp [1]: 0.35; Activity [2]: Active; CL [3]: 100 mL/min; Ki [4]: ≥ 1000 nM; Ki [5]: ≥ 1000 nM; Ki [6]: ≥ 1000 nM; Ki [7]: ≥ 1000 nM; Ki [8]: ≥ 1000 nM; Ki [9]: ≥ 1000 nM; Ki [10]: ≥ 1000 nM; Ki [11]: ≥ 1000 nM; Ki [12]: ≥ 1000 nM; Ki [13]: ≥ 1000 nM; Ki [14]: ≥ 1000 nM; fraction unbound at 1 h, 0.1 µM [15]: 0.48; Ki [16]: ≥ 1000 nM; QH [17]: 20 mL/min; Ki [18]: ≥ 1000 nM; half-life [19]: 48 min; Activity [20]: inactive; Ki [21]: ≥ 1000 nM; Ki [22]: ≥ 1000 nM; Ki [23]: ≥ 1000 nM; Ki [24]: ≥ 1000 nM; Ki [25]: ≥ 1000 nM; EC50 [26]: 61 nM; QH [27]: 1.4 L/min; Ki [28]: ≥ 1000 nM; Ki [29]: ≥ 1000 nM
